Here are results for four compounds from patent US9365494B2, “Process for synthesis of amino-methyl tetralin derivatives” (Roche Palo Alto LLC, priority 2008, dated 2016).

For data set [1], the target named is T1, recombinant human 5-HT6 receptor (Homo sapiens, UniProt P50406).
T1 construct: expressed in transfected cells; membranes)
Put plainly: Radioligand binding studies, 5-HT6 ligand affinity by competing for binding of [3H]LSD. The conditions noted are these: [3H]LSD competition; membranes of HEK293 cells stably expressing the receptor; pH 7.4, 37° C., 75 min; duplicate determinations; read-out: pKi for 5-HT6 (converted). On the procedure:
The binding activity of compounds of this invention in vitro was determined as follows. Duplicate determinations of 5-HT6 ligand affinity were made by competing for binding of [^3H]LSD in cell membranes derived from HEK293 cells stably expressing recombinant human 5-HT6 receptor. Duplicate determinations of 5-HT2A ligand affinity were made by competing for binding of [^3H]Ketanserin (3-(2-(4-(4-fluorobenzoyl)piperidinol)ethyl)-2,4(1H,3H)-quinazolinedione) in cell membranes derived from CHO-K1 cells stably expressing recombinant human 5-HT2A receptor. Membranes were prepared from HEK 293 cell lines by the method described by Monsma et al., Molecular Pharmacology, Vol. 43 pp. 320-327 (1993), and from CHO-K^1 cell lines as described by Bonhaus et al., Br J. Pharmacol. June; 115(4):622-8 (1995).
For estimation of affinity at the 5-HT6 receptor, all determinations were made in assay buffer containing 50 mM Tris-HCl, 10 mM MgSO4, 0.5 mM EDTA, 1 mM ascorbic acid, pH 7.4 at 37° C., in a 250 microliter reaction volume. For estimation of affinity at the 5-HT2A receptor all determinations were made in assay buffer containing 50 mM Tris-HCl, 5 mM ascorbic acid, 4 mM CaCl2, pH 7.4 at 32° C., in a 250 microliter reaction volume.
Assay tubes containing [^3H] LSD or [^3H]Ketanserin (5 nM), competing ligand, and membrane were incubated in a shaking water bath for 75 min. at 37° C. (for 5-HT6) or 60 min. at 32° C. (for 5-HT2A), filtered onto Packard GF-B plates (pre-soaked with 0.3% PEI) using a Packard 96 well cell harvester and washed 3 times in ice cold 50 mM Tris-HCl. Bound [^3H] LSD or [^3H]Ketanserin were determined as radioactive counts per minute using Packard TopCount.
Displacement of [^3H]LSD or [^3H]Ketanserin from the binding sites was quantified by fitting concentration-binding data to a 4-parameter logistic equation:
[formula] where Hill is the Hill slope, [ligand] is the concentration of competing radioligand and IC50 is the concentration of radioligand producing half-maximal specific binding of radioligand. […]

T1 sequence (P50406 whole entry): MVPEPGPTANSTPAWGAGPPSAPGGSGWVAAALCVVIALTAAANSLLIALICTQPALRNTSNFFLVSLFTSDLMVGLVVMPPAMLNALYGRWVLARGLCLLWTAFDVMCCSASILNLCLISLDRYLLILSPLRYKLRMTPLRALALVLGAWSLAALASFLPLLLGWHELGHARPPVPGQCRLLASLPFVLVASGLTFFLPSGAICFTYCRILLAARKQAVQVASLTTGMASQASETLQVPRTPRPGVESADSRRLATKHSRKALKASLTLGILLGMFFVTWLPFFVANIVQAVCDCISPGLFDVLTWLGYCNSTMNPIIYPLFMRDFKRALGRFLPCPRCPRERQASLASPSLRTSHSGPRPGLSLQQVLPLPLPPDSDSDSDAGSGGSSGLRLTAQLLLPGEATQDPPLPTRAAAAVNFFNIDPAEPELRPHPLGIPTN

Usually melting point stands for the temperature of the solid-liquid transition. Compound `NC(=O)[C@@H]1CCCc2cc(Sc3cccc(F)c3)ccc21` [Example 6, (R)-6-(3-Fluoro-phenylsulfanyl)-1,2,3,4-tetrahydro-naphthalene-1-carboxylic acid amide] returned a melting point of 131.9 to 132.6 °C.
`CC(=O)NC[C@@H]1CCCc2cc(S(=O)(=O)c3ccccc3)cc(F)c21` [N-((R)-6-Benzenesulfonyl-8-fluoro-1,2,3,4-tetrahydro-naphthalen-1-ylmethyl)-acetamide] had a melting point of 152.5 to 153.8 °C. In addition, in data set [1], the Ki is 0.178 nM.
Take `NC(=O)NC[C@@H]1CCCc2cc(S(=O)(=O)c3cccc(F)c3)ccc21` [[(R)-6-(3-Fluoro-phenylsulfonyl)-1,2,3,4-tetrahydro-naphthalen-1-ylmethyl]-urea]: the Ki in data set [1] was 0.1 nM.
`NC(=O)NC[C@@H]1CCCc2cc(S(=O)(=O)c3cccc(F)c3)cc(F)c21` [[(R)-8-Fluoro-6-(3-fluoro-benzenesulfonyl)-1,2,3,4-tetrahydro-naphthalen-1-ylmethyl]-urea] registered a melting point of 193.5 to 194.4 °C. Moreover, in data set [1], the Ki was 0.158 nM.
